Measurements published in patent US20230027985A1, “SUBSTITUTED HYDANTOINAMIDES AS ADAMTS7 ANTAGONISTS” (Bayer Aktiengesellschaft, priority 2019, published 2023).

What was measured:
ADAMTS4 = target: T1, ADAMTS4 (Homo sapiens, UniProt O75173); assay: Selectivity assay for ADAMTS-7 modulators (FRET), ADAMTS4; format: biochemical; conditions: 50 nM enzyme (R&D 4307-AD), 1 μM Dabcyl/Edans FRET substrate, 120 min at 32° C.
T1 construct: purchased R&D 4307-AD
T1 sequence (O75173 213-685 limits assumed): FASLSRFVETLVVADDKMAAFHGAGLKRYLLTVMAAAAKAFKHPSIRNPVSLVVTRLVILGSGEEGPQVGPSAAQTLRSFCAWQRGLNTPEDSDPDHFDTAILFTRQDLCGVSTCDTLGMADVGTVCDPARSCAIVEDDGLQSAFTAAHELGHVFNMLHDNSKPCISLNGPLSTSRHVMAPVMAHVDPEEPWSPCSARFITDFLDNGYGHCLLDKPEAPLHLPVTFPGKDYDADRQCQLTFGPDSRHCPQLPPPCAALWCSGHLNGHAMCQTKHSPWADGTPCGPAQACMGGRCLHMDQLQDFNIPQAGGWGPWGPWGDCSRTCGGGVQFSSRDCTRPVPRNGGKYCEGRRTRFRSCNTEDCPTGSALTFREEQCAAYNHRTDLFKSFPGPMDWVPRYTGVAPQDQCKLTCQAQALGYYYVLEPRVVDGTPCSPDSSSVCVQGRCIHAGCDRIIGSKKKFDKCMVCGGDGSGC
Procedure, shortened: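 Enzyme in 50 mM Tris pH 7.5, 150 mM NaCl, 10 mM CaCl2, 0.05% Brij, preincubated with compound in DMSO; reaction started with FRET substrate. Fluorescence increase read after 120 min at 32° C; IC50 from percent inhibition versus compound concentration.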

[1] = target: T2, Purified recombinant ADAMTS-7 (rat prodomain/human catalytic domain, SEQ ID No. 01 or 02) (Homo sapiens, UniProt Q9UKP4); assay: Assay for ADAMTS-7 enzymatic activity (FRET substrate cleavage); format: biochemical; conditions: FRET substrate SEQ ID No. 11, 120 min at 32° C.; read-out: ADAMTS7-IC50
T2 construct: rat ADAMTS-7 signal peptide + prodomain (rat 1-217, Q1EHB3) (N); 2xStrep tag (C); 6xHis tag (C); made in house; host or cells: Expi293 cells
T2 sequence (Q9UKP4 237-537): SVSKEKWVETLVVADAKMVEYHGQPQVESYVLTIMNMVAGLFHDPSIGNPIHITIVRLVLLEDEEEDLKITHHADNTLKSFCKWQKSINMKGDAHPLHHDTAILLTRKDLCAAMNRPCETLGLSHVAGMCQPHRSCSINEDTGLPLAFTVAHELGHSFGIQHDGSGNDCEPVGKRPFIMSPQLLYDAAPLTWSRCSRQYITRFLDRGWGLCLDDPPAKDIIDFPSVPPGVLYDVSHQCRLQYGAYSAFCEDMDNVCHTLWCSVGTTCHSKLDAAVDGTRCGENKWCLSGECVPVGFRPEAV
Procedure, shortened: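 About 20 nM enzyme in 20 mM HEPES pH 8.0, 150 mM NaCl, 5 mM CaCl2, 0.004% Brij and 10 μM ZnCl2 was mixed with compound in DMSO and a QXL520-quenched FRET peptide from thrombospondin-1 (275-289). After 120 min at 32 °C, fluorescence was read at 485/520 nm. IC50 came from percent inhibition versus concentration.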

SMILES | IC50 (ADAMTS4) [nM] | IC50 [1] [nM]
CC(C)C1(CNC(=O)c2cnn(-c3ccc(F)cc3F)n2)NC(=O)NC1=O (single isomer, unassigned; ent-2) [Example 88, ent-2-(2,4-difluorophenyl)-N-[(4-isopropyl-2,5-dioxoimidazolidin-4-yl)methyl]-2H-1,2,3-triazole-4-carboxamide] | 13000 | 98
O=C1NC(=O)C(CNC(=O)c2cnn(-c3ccc(F)c(F)c3)n2)(c2nccs2)N1 (single isomer, unassigned; ent-2) [Example 107, ent-2-(3,4-difluorophenyl)-N-{[2,5-dioxo-4-(1,3-thiazol-2-yl)imidazolidin-4-yl]methyl}-2H-1,2,3-triazole-4-carboxamide] | 310 | 7
O=C1NC(=O)C(CNC(=O)c2cnn(-c3ccc(Cl)c(F)c3)n2)(c2nccs2)N1 (single isomer, unassigned; ent-2) [Example 110, ent-2-(4-chloro-3-fluorophenyl)-N-{[2,5-dioxo-4-(1,3-thiazol-2-yl)imidazolidin-4-yl]methyl}-2H-1,2,3-triazole-4-carboxamide] | 400 | 5
O=C1NC(=O)C(CNC(=O)c2cnn(-c3ccc(F)c(Cl)c3)n2)(c2nccs2)N1 (single isomer, unassigned; ent-2) [Example 112, ent-2-(3-chloro-4-fluorophenyl)-N-{[2,5-dioxo-4-(1,3-thiazol-2-yl)imidazolidin-4-yl]methyl}-2H-1,2,3-triazole-4-carboxamide] | 780 | 14
O=C1NC(=O)C(CNC(=O)c2cnn(-c3ccc(F)cc3F)n2)(c2nccs2)N1 (single isomer, unassigned; ent-2) [Example 116, ent-2-(2,4-difluorophenyl)-N-{[2,5-dioxo-4-(1,3-thiazol-2-yl)imidazolidin-4-yl]methyl}-2H-1,2,3-triazole-4-carboxamide] | 5500 | 78
CC(C)C1(CNC(=O)c2cnn(-c3cccc(C#N)c3)n2)NC(=O)NC1=O (single isomer, unassigned; ent-2) [Example 121, ent-2-(3-cyanophenyl)-N-[(4-isopropyl-2,5-dioxoimidazolidin-4-yl)methyl]-2H-1,2,3-triazole-4-carboxamide] | 2600 | 78
CC(C)C1(CNC(=O)c2cnn(-c3ccc(F)c(F)c3)n2)NC(=O)NC1=O (single isomer, unassigned; ent-2) [Example 123, ent-2-(3,4-difluorophenyl)-N-[(4-isopropyl-2,5-dioxoimidazolidin-4-yl)methyl]-2H-1,2,3-triazole-4-carboxamide] | 910 | 7
CC(C)C1(CNC(=O)c2cnn(-c3ccc(Cl)c(F)c3)n2)NC(=O)NC1=O (single isomer, unassigned; ent-2) [Example 125, ent-2-(4-chloro-3-fluorophenyl)-N-[(4-isopropyl-2,5-dioxoimidazolidin-4-yl)methyl]-2H-1,2,3-triazole-4-carboxamide] | 1000 | 7

Results, then the molecule that gave them:

IC50 (ADAMTS4) [nM] | IC50 [1] [nM] | SMILES
1000 | 37 | CCC(C)C1(CNC(=O)c2cnn(-c3ccc(F)cc3)n2)NC(=O)NC1=O (single isomer, unassigned) [Example 137, ent-N-[(4-sec-butyl-2,5-dioxoimidazolidin-4-yl)methyl]-2-(4-fluorophenyl)-2H-1,2,3-triazole-4-carboxamide]
4000 | 150 | O=C1NC(=O)C(CNC(=O)c2cnn(-c3ccccc3)n2)(C2CCCOC2)N1 (single isomer, unassigned; dia1) [Example 84, dia1-N-{[4-(-oxan-3-yl)-2,5-dioxoimidazolidin-4-yl]methyl}-2-phenyl-2H-1,2,3-triazole-4-carboxamide]
6500 | 250 | O=C1NC(=O)C(CNC(=O)c2cnn(-c3ccccc3)n2)(C2CCCOC2)N1 (single isomer, unassigned; dia2) [Example 85, dia2-N-{[4-(-oxan-3-yl)-2,5-dioxoimidazolidin-4-yl]methyl}-2-phenyl-2H-1,2,3-triazole-4-carboxamide]
1500 | 37 | O=C1NC(=O)C(CNC(=O)c2cnn(-c3ccc(F)cc3)n2)(C2CCOCC2)N1 (single isomer, unassigned; ent-2) [Example 81]
1800 | 18 | O=C1NC(=O)C(CNC(=O)c2cnn(-c3ccc(F)c(Cl)c3)n2)(C2CCC2)N1 (single isomer, unassigned; ent-2) [Example 91, ent-2-(3-chloro-4-fluorophenyl)-N-[(4-cyclobutyl-2,5-dioxoimidazolidin-4-yl)methyl]-2H-1,2,3-triazole-4-carboxamide]
4000 | 78 | N#Cc1cccc(-n2ncc(C(=O)NCC3(C4CCC4)NC(=O)NC3=O)n2)c1 (single isomer, unassigned; ent-2) [Example 92, ent-2-(3-cyanophenyl)-N-[(4-cyclobutyl-2,5-dioxoimidazolidin-4-yl)methyl]-2H-1,2,3-triazole-4-carboxamide]
980 | 10 | O=C1NC(=O)C(CNC(=O)c2cnn(-c3ccc(Cl)cc3)n2)(C2CCC2)N1 (single isomer, unassigned; ent-2) [Example 95, ent-2-(4-chlorophenyl)-N-[(4-cyclobutyl-2,5-dioxoimidazolidin-4-yl)methyl]-2H-1,2,3-triazole-4-carboxamide]
2200 | 48 | O=C1NC(=O)C(CNC(=O)c2cnn(-c3cccc(Cl)c3)n2)(C2CCC2)N1 (single isomer, unassigned; ent-2) [Example 96, ent-2-(3-chlorophenyl)-N-[(4-cyclobutyl-2,5-dioxoimidazolidin-4-yl)methyl]-2H-1,2,3-triazole-4-carboxamide]
200 | 2 | Cc1scnc1C1(CNC(=O)c2cnn(-c3ccc(F)cc3)n2)NC(=O)NC1=O (single isomer, unassigned; ent-2) [Example 103]
2300 | 13 | CC(C)C1(CNC(=O)c2cnn(-c3cccc(F)c3)n2)NC(=O)NC1=O (single isomer, unassigned; ent-2) [Example 119, ent-2-(3-fluorophenyl)-N-[(4-isopropyl-2,5-dioxoimidazolidin-4-yl)methyl]-2H-1,2,3-triazole-4-carboxamide]
12000 | 190 | CC(C)C1(CNC(=O)c2cnn(-c3ccc(F)c(Cl)c3)n2)NC(=O)NC1=O (single isomer, unassigned; ent-2) [Example 126, ent-2-(3-chloro-4-fluorophenyl)-N-[(4-isopropyl-2,5-dioxoimidazolidin-4-yl)methyl]-2H-1,2,3-triazole-4-carboxamide]
130 | 2 | Cn1ccnc1C1(CNC(=O)c2cnn(-c3ccc(F)cc3)n2)NC(=O)NC1=O (single isomer, unassigned; ent-2) [Example 144, ent-2-(4-fluorophenyl)-N-{[4-(1-methyl-1H-imidazol-2-yl)-2,5-dioxoimidazolidin-4-yl]methyl}-2H-1,2,3-triazole-4-carboxamide]
